Reference: ChEMBL document CHEMBL4024706 (Eur J Med Chem, 2017)
Calls of active or inactive are those of the source. The calls are words filed in the database; no cut-off is given here.

Tests used:
[1] = AUC (0 to t) in Sprague-Dawley rat at 1 mg/kg, iv by LC-MS/MS method; type: ADME, organism-based; conditions: in vivo
[2] = molecular target: T1, Tyrosine-protein kinase BTK (Homo sapiens, UniProt Q06187)
Ramos = test: Growth inhibition of human Ramos cells; type: functional; conditions: Homo sapiens, Ramos
[3] = Elimination half-life in Sprague-Dawley rat at 10 mg/kg, po by LC-MS/MS method; type: ADME, organism-based; conditions: in vivo, read-out: beta t1/2 (converted)
[4] = MRT (0 to t) in Sprague-Dawley rat at 1 mg/kg, iv by LC-MS/MS method; type: ADME, organism-based; conditions: in vivo
U2932 [5] = test: Growth inhibition of human U2932 cells; type: functional; conditions: Homo sapiens, U2932
[6] = molecular target: Epidermal growth factor receptor (Homo sapiens, UniProt P00533); test: Inhibition of recombinant human N-terminal GST-tagged wild-type EGFR (695 to end residues) expressed in baculovirus infected Sf9 insect cells using poly (Glu,Tyr)4:1 as substrate pretreated for 60 mins followed by substrate addition after 1 hr by ADP-Glo luminescence assay
Chain of Epidermal growth factor receptor (P00533 whole entry): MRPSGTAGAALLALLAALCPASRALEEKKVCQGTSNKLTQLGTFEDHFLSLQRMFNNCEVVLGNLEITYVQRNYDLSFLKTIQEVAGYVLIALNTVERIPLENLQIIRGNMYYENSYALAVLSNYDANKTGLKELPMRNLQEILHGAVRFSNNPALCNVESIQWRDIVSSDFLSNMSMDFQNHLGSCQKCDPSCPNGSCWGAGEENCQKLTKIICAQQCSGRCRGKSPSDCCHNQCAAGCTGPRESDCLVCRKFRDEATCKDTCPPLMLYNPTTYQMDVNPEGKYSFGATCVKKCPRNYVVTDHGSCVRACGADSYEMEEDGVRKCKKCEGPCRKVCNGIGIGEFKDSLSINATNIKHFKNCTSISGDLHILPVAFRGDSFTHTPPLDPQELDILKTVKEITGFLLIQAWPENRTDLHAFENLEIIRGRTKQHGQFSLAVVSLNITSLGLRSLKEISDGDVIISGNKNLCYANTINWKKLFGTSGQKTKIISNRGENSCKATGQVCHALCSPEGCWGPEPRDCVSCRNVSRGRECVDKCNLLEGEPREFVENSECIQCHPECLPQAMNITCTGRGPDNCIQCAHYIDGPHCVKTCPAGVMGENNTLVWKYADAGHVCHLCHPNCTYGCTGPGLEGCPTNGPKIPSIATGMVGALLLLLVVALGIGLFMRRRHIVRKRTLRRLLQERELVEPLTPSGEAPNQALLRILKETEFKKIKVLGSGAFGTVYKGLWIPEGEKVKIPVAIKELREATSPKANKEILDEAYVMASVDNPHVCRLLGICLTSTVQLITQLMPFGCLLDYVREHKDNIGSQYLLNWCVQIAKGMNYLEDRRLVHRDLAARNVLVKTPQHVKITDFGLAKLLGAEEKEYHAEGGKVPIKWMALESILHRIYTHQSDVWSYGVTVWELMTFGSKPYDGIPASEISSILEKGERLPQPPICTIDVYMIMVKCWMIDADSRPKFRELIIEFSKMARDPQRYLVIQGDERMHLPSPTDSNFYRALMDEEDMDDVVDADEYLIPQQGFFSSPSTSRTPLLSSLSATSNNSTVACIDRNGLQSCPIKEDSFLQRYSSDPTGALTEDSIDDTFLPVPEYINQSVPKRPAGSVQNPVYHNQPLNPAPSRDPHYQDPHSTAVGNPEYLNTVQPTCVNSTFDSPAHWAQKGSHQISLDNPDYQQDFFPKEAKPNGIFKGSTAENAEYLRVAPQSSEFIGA

[7] = Tmax in Sprague-Dawley rat at 10 mg/kg, po by LC-MS/MS method; type: ADME, organism-based; conditions: in vivo
MV4-11 = test: Growth inhibition of human MV411 cells; type: functional; conditions: Homo sapiens, MV4-11
[8] = Growth inhibition of human M07e cells; type: functional; conditions: Homo sapiens, M-07e
[9] = molecular target: T1, Tyrosine-protein kinase BTK; test: Inhibition of full length recombinant human N-terminal His tagged […] expressed in baculovirus infected Sf9 insect cells using poly (Glu,Tyr)4:1 as substrate pretreated for 60 mins followed by substrate addition after 1 hr by ADP-Glo luminescence assay
[10] = Cmax in Sprague-Dawley rat at 1 mg/kg, iv by LC-MS/MS method; type: ADME, organism-based; set-up: dose 1 mg/kg, route intravenous; conditions: in vivo
[11] = Oral bioavailability in Sprague-Dawley rat at 10 mg/kg by LC-MS/MS method; type: ADME, organism-based; conditions: in vivo
[12] = MRT (0 to t) in Sprague-Dawley rat at 10 mg/kg, po by LC-MS/MS method; type: ADME, organism-based; conditions: in vivo
[13] = Tmax in Sprague-Dawley rat at 1 mg/kg, iv by LC-MS/MS method; type: ADME, organism-based; conditions: in vivo
OCI-AML-3 = test: Growth inhibition of human OCI-AML3 cells; type: functional; conditions: Homo sapiens, OCI-AML-3
[14] = molecular target: T1, Tyrosine-protein kinase BTK; test: Reversible inhibition of full length recombinant human N-terminal His tagged […] expressed in baculovirus infected Sf9 insect cells using poly (Glu,Tyr)4:1 as substrate pretreated for 2 to 60 mins followed by substrate addition after 1 hr by ADP-Glo luminescence assay
[15] = AUC (0 to t) in Sprague-Dawley rat at 10 mg/kg, po by LC-MS/MS method; type: ADME, organism-based; conditions: in vivo
SU-DHL-2 = test: Growth inhibition of human SU-DHL-2 cells; type: functional; conditions: Homo sapiens, SU-DHL-2
[16] = molecular target: T2, Tyrosine-protein kinase JAK3 (Homo sapiens, UniProt P52333); test: Inhibition of recombinant human N-terminal GST-tagged JAK3 (781 to end residues) expressed in baculovirus infected Sf9 insect cells using poly (Glu,Tyr)4:1 as substrate pretreated for 60 mins followed by substrate addition after 1 hr by ADP-Glo luminescence assay
T2 sequence (P52333 whole entry): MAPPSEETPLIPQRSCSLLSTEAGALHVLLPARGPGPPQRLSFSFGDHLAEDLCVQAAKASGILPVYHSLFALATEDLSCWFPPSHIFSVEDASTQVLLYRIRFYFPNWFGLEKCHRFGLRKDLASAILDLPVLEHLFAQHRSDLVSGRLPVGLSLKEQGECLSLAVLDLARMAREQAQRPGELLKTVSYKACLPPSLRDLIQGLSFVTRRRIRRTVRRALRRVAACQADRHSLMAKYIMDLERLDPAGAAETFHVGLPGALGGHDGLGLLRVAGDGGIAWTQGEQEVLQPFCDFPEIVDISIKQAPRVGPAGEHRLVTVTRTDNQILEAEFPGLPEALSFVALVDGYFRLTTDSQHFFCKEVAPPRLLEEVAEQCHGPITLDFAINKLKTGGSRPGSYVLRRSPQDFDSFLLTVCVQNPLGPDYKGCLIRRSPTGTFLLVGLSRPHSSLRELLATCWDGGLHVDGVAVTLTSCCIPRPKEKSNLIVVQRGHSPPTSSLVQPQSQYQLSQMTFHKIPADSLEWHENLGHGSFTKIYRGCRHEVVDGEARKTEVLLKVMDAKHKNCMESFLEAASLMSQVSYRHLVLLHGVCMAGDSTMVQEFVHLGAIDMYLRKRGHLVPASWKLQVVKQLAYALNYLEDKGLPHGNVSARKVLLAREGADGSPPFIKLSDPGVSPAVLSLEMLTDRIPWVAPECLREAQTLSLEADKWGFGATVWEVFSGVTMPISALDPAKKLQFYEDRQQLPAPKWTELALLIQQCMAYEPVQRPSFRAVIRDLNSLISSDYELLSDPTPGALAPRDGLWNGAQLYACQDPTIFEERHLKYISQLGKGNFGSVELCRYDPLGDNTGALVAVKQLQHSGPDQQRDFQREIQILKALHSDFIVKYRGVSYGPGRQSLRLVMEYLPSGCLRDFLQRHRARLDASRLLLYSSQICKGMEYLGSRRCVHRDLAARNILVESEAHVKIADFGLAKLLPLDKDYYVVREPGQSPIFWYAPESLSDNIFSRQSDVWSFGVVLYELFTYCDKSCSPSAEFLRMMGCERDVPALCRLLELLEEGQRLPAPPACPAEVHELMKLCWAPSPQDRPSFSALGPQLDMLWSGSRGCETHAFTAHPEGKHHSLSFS

[17] = Elimination half-life in Sprague-Dawley rat at 1 mg/kg, iv by LC-MS/MS method; type: ADME, organism-based; conditions: in vivo, read-out: beta t1/2 (converted)
[18] = Cmax in Sprague-Dawley rat at 10 mg/kg, po by LC-MS/MS method; type: ADME, organism-based; set-up: dose 10 mg/kg, route oral; conditions: in vivo
Pfeiffer [19] = test: Growth inhibition of human Pfeiffer cells; type: functional; conditions: Homo sapiens, Pfeiffer
PBMC = test: Cytotoxicity against PBMC (unknwon origin); type: cell-based
[20] = AUC (0 to infinity) in Sprague-Dawley rat at 10 mg/kg, po by LC-MS/MS method; type: ADME, organism-based; set-up: dose 10 mg/kg, route oral, time infinity; conditions: in vivo
SKM-1 = test: Growth inhibition of human SKM1 cells; type: functional; conditions: Homo sapiens, SKM-1
NB-4 = test: Growth inhibition of human NB4 cells; type: functional; conditions: Homo sapiens, NB-4
[21] = AUC (0 to infinity) in Sprague-Dawley rat at 1 mg/kg, iv by LC-MS/MS method; type: ADME, organism-based; set-up: dose 1 mg/kg, route intravenous, time infinity; conditions: in vivo
U-937 = test: Growth inhibition of human U937 cells; type: functional; conditions: Homo sapiens, U-937
[22] = molecular target: Tyrosine-protein kinase BTK (Homo sapiens, UniProt Q06187, C481S); test: Irreversible inhibition of recombinant full length 3'-FLAG-tagged BTK C481S mutant (unknown origin) expressed in HEK293T cells assessed as reduction in Y223 phosphorylation measured after 4 hrs by Western blot method; type: cell-based
Chain of Tyrosine-protein kinase BTK (Homo sapiens, UniProt Q06187, C481S) (Q06187 2-659 C481S limits assumed): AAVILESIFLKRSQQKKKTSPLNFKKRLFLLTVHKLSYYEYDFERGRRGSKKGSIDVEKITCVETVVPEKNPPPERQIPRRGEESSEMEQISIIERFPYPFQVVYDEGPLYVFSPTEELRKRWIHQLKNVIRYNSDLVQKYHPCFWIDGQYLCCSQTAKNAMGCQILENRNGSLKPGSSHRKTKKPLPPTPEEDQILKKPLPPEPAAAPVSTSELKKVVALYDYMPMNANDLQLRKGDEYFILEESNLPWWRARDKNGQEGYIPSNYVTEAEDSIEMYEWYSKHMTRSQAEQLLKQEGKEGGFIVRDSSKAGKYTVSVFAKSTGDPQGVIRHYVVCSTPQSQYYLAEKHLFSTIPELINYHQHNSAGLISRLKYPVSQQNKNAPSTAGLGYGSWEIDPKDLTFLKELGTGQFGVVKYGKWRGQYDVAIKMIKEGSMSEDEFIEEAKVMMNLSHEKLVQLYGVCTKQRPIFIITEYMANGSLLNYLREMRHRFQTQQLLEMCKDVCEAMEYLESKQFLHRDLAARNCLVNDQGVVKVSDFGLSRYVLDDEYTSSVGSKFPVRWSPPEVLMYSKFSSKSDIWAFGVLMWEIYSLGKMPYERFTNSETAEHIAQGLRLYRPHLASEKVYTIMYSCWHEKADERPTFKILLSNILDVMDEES

Pfeiffer [23] = test: Cell cycle arrest in human Pfeiffer cells assessed as increase in accumulation at G0/G1 phase at 10 uM after 48 hrs by propidium iodide/RNase staining based flow cytometric method; type: functional
[24] = molecular target: T1, Tyrosine-protein kinase BTK; test: Irreversible inhibition of recombinant full length wild-type 3'-FLAG-tagged BTK (unknown origin) expressed in HEK293T cells assessed as reduction in Y223 phosphorylation measured after 4 hrs by Western blot method; type: cell-based
U2932 [25] = test: Cell cycle arrest in human U2932 cells assessed as increase in accumulation at G0/G1 phase at 10 uM after 48 hrs by propidium iodide/RNase staining based flow cytometric method; type: functional

T1 sequence (Q06187 whole entry): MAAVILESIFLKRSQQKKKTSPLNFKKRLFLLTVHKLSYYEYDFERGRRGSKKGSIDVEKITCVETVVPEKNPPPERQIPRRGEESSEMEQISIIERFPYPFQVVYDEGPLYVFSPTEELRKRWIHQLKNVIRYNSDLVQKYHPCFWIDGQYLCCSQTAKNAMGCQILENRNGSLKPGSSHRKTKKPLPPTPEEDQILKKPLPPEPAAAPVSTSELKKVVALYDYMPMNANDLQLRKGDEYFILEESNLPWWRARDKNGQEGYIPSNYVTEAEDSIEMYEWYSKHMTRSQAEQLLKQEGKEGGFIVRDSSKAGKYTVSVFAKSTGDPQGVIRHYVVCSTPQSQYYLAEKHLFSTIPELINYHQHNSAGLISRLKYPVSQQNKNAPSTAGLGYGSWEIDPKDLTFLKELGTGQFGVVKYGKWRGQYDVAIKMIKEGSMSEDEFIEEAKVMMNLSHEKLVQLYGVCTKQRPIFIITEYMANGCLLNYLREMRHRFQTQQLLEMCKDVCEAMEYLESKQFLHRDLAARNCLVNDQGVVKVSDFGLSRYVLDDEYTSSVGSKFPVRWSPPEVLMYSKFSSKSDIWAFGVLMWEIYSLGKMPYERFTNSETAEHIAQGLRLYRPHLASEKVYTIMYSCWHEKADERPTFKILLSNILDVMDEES

Row | AUC(0-t) [1] [ng·h/mL] | Kinact [2] [min⁻¹] | GI50 (Ramos) [nM] | half-life [3] [min] | MRT last [4] [min] | IC50 [6] [nM] | Tmax [7] [min] | GI50 (MV4-11) [nM] | IC50 [9] [nM] | Cmax [10] [ng/mL] | bioavailability [11] [%] | MRT last [12] [min] | GI50 (OCI-AML-3) [nM] | GI50 (SU-DHL-2) [nM] | GI50 (SKM-1) [nM] | GI50 (U-937) [nM] | SMILES | GI50 (U2932 [5]) [nM] | GI50 [8] [nM] | GI50 (Pfeiffer [19]) [nM] | GI50 (NB-4) [nM] | other results
1 | 1560 | 0.05 | 1200 | 232 | 26.5 | 6860 | 90 | 2200 | 16.5 | 7620 | 11.5 | 141 | 2300 | 1800 | 2800 | 1600 | C=CC(=O)Nc1cc(Nc2cc(-c3cccc(NC(=O)c4cc5c(s4)CCCC5)c3C)cn(C)c2=O)ccc1C(=O)N1CCOCC1 | 2300 | 2800 | 3500 | 2400 | Tmax [13]: 1.02 min; Ki [14]: 6 nM; AUC(0-t) [15]: 1790 ng·h/mL; IC50 [16]: 1030 nM; half-life [17]: 36.5 min; Cmax [18]: 1120 ng/mL; Activity (PBMC): Non-Toxic; AUC(0-inf) [20]: 1900 ng·h/mL; AUC(0-inf) [21]: 1560 ng·h/mL
2 | 317 | 0.33 | 2100 | 472 | 9.6 | 5880 | 4.98 | 1900 | 5.8 | 2440 | 4.76 | 203 | 2600 | 2600 | 1000 | 2600 | C=CC(=O)Nc1cc(Nc2cc(-c3cccc(NC(=O)c4ccc(N(C)C)cc4)c3C)cn(C)c2=O)ccc1C(=O)N1CCOCC1 | 6900 | 3200 | 9000 | 1900 | Tmax [13]: 1.02 min; Ki [14]: 113 nM; AUC(0-t) [15]: 151 ng·h/mL; IC50 [16]: 2010 nM; half-life [17]: 14.4 min; Cmax [18]: 144 ng/mL; Activity (PBMC): Non-Toxic; AUC(0-inf) [20]: 291 ng·h/mL; AUC(0-inf) [21]: 317 ng·h/mL
3 |  |  | 4600 |  |  |  |  | 4800 | 163 |  |  |  | 9500 | > 10000 | > 10000 | > 10000 | CCC(=O)Nc1cc(Nc2cc(-c3cccc(NC(=O)c4ccc(C(C)(C)C)cc4)c3C)cn(C)c2=O)ccc1C(=O)N1CCOCC1 | > 10000 | > 10000 | > 10000 | > 10000 | EC50 [22]: > 100 nM; Activity (Pfeiffer [23]): inactive; EC50 [24]: > 100 nM; Activity (U2932 [25]): inactive
